Measurements: BindingDB's records for doi:10.1111/cbdd.12016 (Peking University Health Science Center, 2012)

Target: Beta-secretase 1 (Homo sapiens, UniProt P56817)
Assay: Fluorescence Resonance Energy Transfer (FRET) Assay
Procedure: BACE1 inhibitory evaluation was carried out using a Fluorescence Resonance Energy Transfer (FRET) assay kit supplied by PanVera (kit P2985, Madison, WI, USA).

Sequence of Beta-secretase 1 (P56817 whole entry): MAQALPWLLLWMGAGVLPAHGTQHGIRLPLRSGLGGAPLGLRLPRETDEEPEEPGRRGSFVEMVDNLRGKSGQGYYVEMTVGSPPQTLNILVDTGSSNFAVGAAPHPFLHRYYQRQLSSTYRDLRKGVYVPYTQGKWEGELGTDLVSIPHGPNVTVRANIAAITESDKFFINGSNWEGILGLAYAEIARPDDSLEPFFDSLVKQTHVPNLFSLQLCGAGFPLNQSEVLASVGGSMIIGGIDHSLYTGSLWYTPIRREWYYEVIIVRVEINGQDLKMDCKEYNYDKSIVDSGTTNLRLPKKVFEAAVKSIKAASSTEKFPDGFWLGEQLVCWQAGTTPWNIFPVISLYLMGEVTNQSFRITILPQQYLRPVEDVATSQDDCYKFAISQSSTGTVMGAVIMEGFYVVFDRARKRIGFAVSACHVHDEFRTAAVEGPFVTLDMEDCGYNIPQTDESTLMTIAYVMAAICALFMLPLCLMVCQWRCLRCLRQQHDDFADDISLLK

SMILES | IC50 [µM]
CCCOc1cccc(-c2cc(Oc3ccccc3)cc(C(=N)N)c2)c1 [Benzimidamide, 6a] | 8.02
CCCCOc1cccc(-c2cc(Oc3ccccc3)cc(C(=N)N)c2)c1 [Benzimidamide, 6b] | 7.03
CCCOc1cccc(-c2cc(Oc3ccccc3F)cc(C(=N)N)c2)c1 [Benzimidamide, 6c] | 4.36
CCCCOc1cccc(-c2cc(Oc3ccccc3F)cc(C(=N)N)c2)c1 [Benzimidamide, 6d] | 3.35
CCCOc1cccc(-c2cc(C#N)cc(Oc3ccccc3F)c2)c1 [Benzonitrile, 5c] | 80.3
CCCCOc1cccc(-c2cc(C#N)cc(Oc3ccccc3F)c2)c1 [Benzonitrile, 5d] | 9.35
